{"source": "patent US20090318461A1", "about": "“CRYSTALLINE POLYMORPHISM OF 5-METHYL-2-(PIPERAZIN-1-YL) BENZENESULFONIC ACID” (priority 2006, published 2009)", "key": {"[1]": {"tested_on": "cardiomyocytes", "details": "cited from earlier work"}, "[2]": {"assay": "Measurement of moisture sorption at each relative humidity (water vapor sorption apparatus SGA-100)", "type": "physicochemical", "details": "for moisture sorption (weight increase) at relative humidity 50%: 50% RH; for weight change when humidity was reduced from 95% RH to 5% RH after moisture absorption: humidity decrease 95% RH to 5% RH; for hygroscopicity: from moisture sorption isotherm", "experimental": "In the present invention, when moisture sorption at each relative humidity becomes not more than 0.03% in 5 min, or when 3 hours have passed at each relative humidity, the range of relative humidity being from 0% to 95%, the humidity is increased or decreased at 5% intervals, and the moisture sorption isotherms at each relative humidity is obtained gravimetrically by measuring the mass change of a sample.\nThe above-mentioned moisture sorption can be measured using, for example, SGA-100 type water vapor sorption apparatus (manufactured by VTI) as shown in the Examples. While the error in the relative humidity values depends on the performance of the apparatus, it is about ±1% using this apparatus.\nThe “moisture sorption” in the present invention refers to the values calculated by the following equation:\nmoisture sorption (%)=((RM−DM)/DM))*100\nwherein DM: sample weight (mg) after sufficient drying at relative humidity 0% RM: sample weight (mg) in the equilibrium state at various relative humidities\nFor moisture sorption isotherms, when weight variation under each relative humidity condition becomes not more than 0.03% in 5 min, or when 3 hours have passed at each relative humidity, the range of relative humidity being from 0% to 95%, the humidity is increased or decreased at 5% intervals, and the moisture sorption isotherms at each relative humidity is obtained gravimetrically by measuring the mass change of a sample. The “RH” in the preset Examples means “relative humidity”.\n5-Methyl-2-(piperazin-1-yl)benzenesulfonic acid monohydrate was dried for 60 min by heating in a sample booth at 80° C. under nitrogen substitution. The sample was used as sample 7 (type-I anhydrate crystal), and measured for moisture sorption from 5% RH.\nThe sample 2 (type-II anhydrate crystal) obtained in Example 2 was dried for 60 min by heating in a sample booth at 80° C. under nitrogen substitution, and measured for moisture sorption from 5% RH."}, "[3]": {"assay": "Thermal analysis (DSC822e) of monohydrate crystals", "type": "physicochemical", "details": "25-300° C., 20° C./min, dry nitrogen gas", "experimental": "In Examples 3, 4 and Experimental Examples 5, 6, each crystal forms was confirmed by powder X-ray diffractometer (manufactured by Bruker) GADDS detector system and thermal analysis equipment (manufactured by Mettler-Toledo) DSC822e system.\nFor thermal analysis, the measurement was performed in a dry nitrogen gas stream (50 mL/min) from 25° C. to 300° C. at a temperature rise rate of 20° C./min.\nUsing the solids obtained in Examples 3 and 4 as sample 8 (type-II monohydrate crystal) and sample 9 (type-III monohydrate crystal), respectively, the thermal analysis was performed under the following conditions.\napparatus: DSC822e manufactured by Metter-Toledo temperature rise rate: 20° C./min atmosphere: dry nitrogen gas 50 mL/min measurement temperature: 25-300° C."}, "[4]": {"details": "humidity increase from 5% RH to 95% RH"}}, "data": [{"smiles": "Cc1ccc(N2CCNCC2)c(S(=O)(=O)O)c1", "note": "[compound A, 5-methyl-2-(piperazin-1-yl)benzenesulfonic acid]", "values": [{"measurement": "suppression of excessive influx of calcium ions into cardiomyocytes", "setting": "[1]", "result": "remarkably suppresses"}]}, {"smiles": "Cc1ccc(N2CCNCC2)c(S(=O)(=O)O)c1", "note": "[type-I anhydrate crystal, 5-methyl-2-(piperazin-1-yl)benzenesulfonic acid anhydrate]", "values": [{"measurement": "moisture sorption (weight increase) at relative humidity 50%", "setting": "[2]; humidity increase from 5% RH to 95% RH, listed as sample 7", "result": "about 6.0%"}, {"measurement": "weight change when humidity was reduced from 95% RH to 5% RH after moisture absorption", "setting": "[2]", "result": "weight change was not observed"}, {"measurement": "relative humidity from which moisture absorption was shown", "setting": "[2]; [4]", "result": 10, "unit": "% RH"}]}, {"smiles": "Cc1ccc(N2CCNCC2)c(S(=O)(=O)O)c1", "note": "[type-II anhydrate crystal, 5-methyl-2-(piperazin-1-yl)benzenesulfonic acid anhydrate]", "values": [{"measurement": "moisture sorption in the range of 0-50% RH", "setting": "[2]; 0-50% RH, humidity increase from 5% RH to 95% RH", "result": "about 2.0%"}, {"measurement": "moisture sorption (weight increase) at relative humidity 50%", "setting": "[2]; [4]", "result": "not more than 2%"}, {"measurement": "weight increase around 60% RH", "setting": "[2]; around 60% RH, humidity increase from 5% RH to 95% RH", "result": "about 6.5%"}, {"measurement": "hygroscopicity", "setting": "[2]", "result": "less hygroscopic"}, {"measurement": "hygroscopicity", "setting": "[2]; listed as sample 2", "result": "hardly present"}, {"measurement": "weight change when humidity was reduced from 95% RH to 5% RH after moisture absorption", "setting": "[2]", "result": "weight change was not observed"}]}, {"smiles": "Cc1ccc(N2CCNCC2)c(S(=O)(=O)O)c1", "note": "[type-II monohydrate crystal, 5-methyl-2-(piperazin-1-yl)benzenesulfonic acid monohydrate]", "values": [{"measurement": "crystal stability by thermal analysis (no noticeable endothermic and exothermic peaks up to around 80° C.)", "setting": "[3]", "result": "stable"}]}]}
